Columns and labels:
[1] = system: CaMKIIα binding to GST-GluN2B-c
Protocol: In a series of exemplary methods, an in vitro kinase assay was used where purified CaMKIIα is incubated at 30° C. with GST-GluA1 alongside ATP. CaMKIIα normally phosphorylates S831 on the GluA1 subunit and this phosphorylation can be measured as a readout of CaMKIIα enzymatic activity (see e.g., FIG. 8B). […] In another exemplary method, binding of purified CaMKIIα to immobilized GST-GluN2B-c was induced by Ca^2+/CaM in the presence of a vehicle (none), 4 mM ADP or with […] AS105. […] At the same time, two exemplary methods were performed to observe ionomycin or chemical LTP (cLTP) induced co-localization of CaMKII and GluN2B either in HEK293 cells co-expressing GFP-CaMKII and mCherry-2BC or dissociated rat hippocampal cultures expressing GFP-CaMKII and mCh-PSD95 intrabody. HEK293 cells, incubating with vehicle or 10 μM AS105, were subjected to ionomycin. Hippocampal cultures, also incubating with either vehicle or 10 μM AS105, were treated with a chemical LTP (cLTP) stimulus (e.g., 100 μM glutamate, 10 μM glycine for 45 seconds). Confocal microscopy images were taken before and after each stimulus.
One possible mechanism by which AS283 could enhance GluN2B binding more than ATP is by suppressing CaMKII-mediated phosphorylation of GluN2B at S1303, as this phosphorylation within the CaMKII binding site on GluN2B reduces CaMKII binding.
Bound CaMKII was measured via immunoblot.

[2] = system: GFP-CaMKII synaptic enrichment (mCh-PSD95 intrabody); test: cLTP-induced CaMKII movement to excitatory synapses in dissociated rat hippocampal cultures; assay type: cell-based; details: 10 μM inhibitor; cLTP 100 μM glutamate, 10 μM glycine, 45 seconds
[3] = system: pT286 CaMKII; test: CaMKII T286 phosphorylation in hippocampal cultures after chemical LTP stimulation; assay type: cell-based
Protocol: In this Example, other possibilities of AS283 action were tested. If AS283 blocks pT286 but not LTP because it also circumvents the need of pT286 for LTP, then AS283 should not only fail to block LTP in WT mice (as illustrated in FIGS. 3A-3B) but should also restore the capacity for LTP induction in T286A mutant mice. […] Specifically, in an exemplary method, the addition of AS283 (10 μM) enabled LTP in slices from the T286A mutant mice (FIGS. 3C-3D).
Immunoblot analysis. Protein concentration was determined using the Pierce BCA protein assay (Thermo-Fisher). Before undergoing SDS-PAGE, samples were boiled in Laemmli sample buffer for 5 min at 95° C. Proteins were separated in a resolving phase polymerized from 10% acrylamide, then transferred to a polyvinylidene difluoride membrane at 24 V for 1-2 h at 4° C. […] Blots were developed using chemiluminescence (Super Signal West Femto, Thermo-Fisher) imaged using the Chemi-Imager 4400 system (Alpha-Innotech), or imaged directly by fluorescence (Cytiva CyDye 700 goat anti-mouse and CyDye 800 goat anti-rabbit secondary antibodies.) using an OdysseyFc imaging instrument. All immunoblots were analyzed by densitometry (ImageJ). […]

[4] = system: CaMKII movement to excitatory synapses; test: cLTP-induced CaMKII movement to excitatory synapses in the presence of soluble oligomeric Aβ; assay type: cell-based; details: 0.5 μM Aβ, inhibitor 10 μM, 45 minutes prior to cLTP
[5] = molecular target: CaMKII F89G (Homo sapiens, UniProt Q9UQM7, F89G); test: In vitro kinase assay with CaMKII F89G mutant; assay type: biochemical; details: 10 μM NM-PP1
Protocol: This conclusion also predicts that the LTP stimulus-induced movement of CaMKII to excitatory synapses should be (i) impaired in the CaMKII F89G mutant; but (ii) normalized by pharmacogenetic rescue with NM-PP1. Indeed, both predictions were observed experimentally (FIGS. 4D-4E).
In vitro phosphorylation assays. CaMKII-mediated phosphorylation of GluA1 S831 was measured by in vitro kinase reaction with purified GST-GluA1 c-terminal tail. Reactions contained 40 nM CaMKII (or water for negative controls), 1 μM GST-GluA1, 50 mM PIPES pH 7.1, 2 mM CaCl2), 10 mM MgCl2, 1 μM calmodulin, 1-4 mM ATP, and 1 PM of okadaic acid. Reactions were done at 30° C. for 20 s; reactions were stopped by adding SDS-loading buffer and incubation in a boiling water bath for 5 min. GST, phospho-S831, CaMKII, phospho-T286, or phospho-S1303 were detected in the samples by immunoblot analysis.

Compound | CaMKII binding to immobilized GluN2B compared to a control without nucleotide or inhibitor ([1]; 10 μM inhibitor, EGTA wash, immunoblot) | CaMKII binding to GluN2B in the presence of ADP ([1]; 1 mM ADP, AS283 10 μM) | Ca2+/CaM-induced CaMKII binding to immobilized WT GluN2B when ATP was substituted ([1]; AS283 versus 1 mM ATP) | enhancing effect on CaMKII binding to GluN2B S1303A mutant compared with ATP ([1]; phosphorylation-incompetent GluN2B S1303A) | cLTP-induced CaMKII co-localization/movement to excitatory synapses in hippocampal neurons [2] | increase in pT286 levels after chemical LTP stimulation [3] | rescue of Aβ-blocked cLTP-induced movement of CaMKII to the synapses [4] | residual enzymatic activity of CaMKII F89G [5]
NCCNc1cccc(-c2ccnc3[nH]c4ccccc4c23)c1 [AS283] | increased CaMKII binding | did not inhibit CaMKII binding to GluN2B | significantly enhanced | indistinguishable | failed to inhibit CaMKII binding to GluN2B | specifically blocked increase in pT286 levels | rescued | –
CC(C)(C)n1nc(Cc2cccc3ccccc23)c2c(N)ncnc21 [NM-PP1] | – | – | – | – | – | – | – | still further reduced
